Measured values published in paper PMC9572541, “Design, Synthesis and Biological Evaluation of Novel and Potent Protein Arginine Methyltransferases 5 Inhibitors for Cancer Therapy” (Molecules, 2022).

Key:
[1] = molecular target: T1, PRMT5 (Homo sapiens, UniProt O14744); assay: PRMT5 enzymatic activity inhibition assay (radioactive methylation, 3H-SAM to H4R3 peptide); type: biochemical; details: 100 nM compound; read-out: Inhibition Rate% @100 nM
T1 construct: The final concentrations of PRMT5 enzyme: 2.5 nm/L
T1 sequence (O14744 whole entry): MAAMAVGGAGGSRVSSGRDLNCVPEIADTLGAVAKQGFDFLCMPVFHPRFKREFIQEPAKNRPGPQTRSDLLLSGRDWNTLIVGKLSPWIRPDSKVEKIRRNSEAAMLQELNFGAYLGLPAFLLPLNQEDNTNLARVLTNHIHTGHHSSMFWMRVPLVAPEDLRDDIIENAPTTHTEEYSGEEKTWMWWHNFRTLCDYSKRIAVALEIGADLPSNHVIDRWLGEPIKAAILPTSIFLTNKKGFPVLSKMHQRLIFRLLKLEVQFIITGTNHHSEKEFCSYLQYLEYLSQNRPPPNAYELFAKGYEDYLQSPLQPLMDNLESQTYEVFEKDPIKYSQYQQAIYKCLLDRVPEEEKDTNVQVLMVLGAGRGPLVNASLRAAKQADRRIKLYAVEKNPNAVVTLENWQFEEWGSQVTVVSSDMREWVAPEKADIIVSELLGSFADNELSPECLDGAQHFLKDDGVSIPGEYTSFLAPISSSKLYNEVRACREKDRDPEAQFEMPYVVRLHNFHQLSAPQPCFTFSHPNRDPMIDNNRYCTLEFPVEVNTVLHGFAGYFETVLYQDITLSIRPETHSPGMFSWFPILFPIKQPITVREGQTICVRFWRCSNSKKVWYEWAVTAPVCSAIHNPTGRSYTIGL
T1 sequence (Q9BQA1 whole entry partner): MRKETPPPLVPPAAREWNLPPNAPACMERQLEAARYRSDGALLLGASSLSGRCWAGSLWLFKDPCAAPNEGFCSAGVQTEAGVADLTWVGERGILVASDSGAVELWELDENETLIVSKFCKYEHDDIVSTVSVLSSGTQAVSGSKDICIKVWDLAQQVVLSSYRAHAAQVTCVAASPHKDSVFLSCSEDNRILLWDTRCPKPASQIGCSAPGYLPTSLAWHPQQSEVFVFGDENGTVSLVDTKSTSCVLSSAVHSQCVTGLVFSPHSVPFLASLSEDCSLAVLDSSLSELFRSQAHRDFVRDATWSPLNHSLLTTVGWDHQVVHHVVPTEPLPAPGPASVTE
Method: The PRMT5 enzymatic activity assay was conducted by Chempartner Life science. The final concentrations of PRMT5 enzyme: 2.5 nm/L; ^3H-SAM: 0.3 μM/L; histone peptide (H4R3S1ac): 0.3 μM/L. The protocol of radioactive methylation assay was as follows: (1) Prepare 1× assay buffer (modified Tris Buffer). (2) Transfer compounds to assay plate using Echo in 100% DMSO. DMSO’s final fraction is 1%. (3) Prepare enzyme and ^3H-SAM Mix solution in 1× assay buffer. (4) Prepare substrate (peptide sequence Ac-[…]-K(Biotin)) solution in 1× assay buffer. (5) Transfer 15 μL of enzyme and ^3H-SAM solution to assay plate. (6) Incubate at room temperature for 60 min. (7) Add 10 μL of substrate solution to each well to start the reaction, and for low control transfer 10 μL of 1× assay buffer. (8) Incubate at room temperature for 120 min. (9) Add cold SAM in 1× assay buffer to make the stop mix. (10) Stop reaction with addition of 5 µL per well of stop solution. (11) Transfer 25 µL of volume per well to Flash plate from assay plate. (12) Incubate for 1 h minimum at room temperature.
(13) Read plate on Micro beta. (14) Data process—get the data in Excel to obtain inhibition values using Equation (1).Inhibitory rate% = (Max-Signal)/ (Max-Min) × 100(1)
Fit the data in XL-Fit to obtain IC50 values using Equation (2): Y = Bottom + (Top-Bottom)/(1 + (IC50/X) […]) Y is% inhibition and X is compound concentration(2)

[2] = test system: MV-4-11 cells; assay: Anti-proliferation CellTiter-Glo assay, MV-4-11; type: cell-based; details: Homo sapiens, MV4-11, 12th day
From the text: (§1) MV-4-11 and MDA-MB-468 cell lines were used to evaluate the anti-proliferative activities of the selected target compounds (CellTiter-Glo assay), and AML-12 hepatocytes were selected to evaluate the toxicity of the compounds.
(§2) MV-4-11 and MDA-MB-468 cell line were derived from Cell Resources Center of Shanghai Academy of life sciences (Shanghai, China). AML-12 cell line was brough from Nanjing Lixing Biotechnology Co. Ltd. (Nanjing, China). MDA-MB-468 cell line was maintained in Dulbecco’s Modified Eagle Medium (DMEM, KeyGEN Bio) that contained 10% FBS (Biochanel, China), MV-4-11 cell line was maintained in Iscove’s Modified Dulbecco Medium containing; 10% FBS (Biochannel, China), AML-12 cell line was maintained in DMEM/F-12 (1:1) (KeyGEN, China; 1% ITS Liquid Media Supplement (Sigma, America), dexamethasone 40 ng/mL (Sigma, USA) and 10% FBS (Biochannel, China). All cells were grown in a humidified incubator containing 5% carbon dioxide at 37 ℃. All compounds were dispersed in dimethyl sulfoxide (Sigma), the concentration of the reserve solution was 10 mmol/L and the solution was stored in a refrigerator at −20 ℃. SDMA (# 13222S), β- Tubulin (#2146S) and horseradish peroxidase (HRP)-linked secondary antibodies anti-rabbit or anti-mouse IgG were purchased from Cell Signaling Technology (CST), and the anti-PRMT5 (ab109451) antibody was purchased from ABCAM.
(§3) The antiproliferative activities of compounds in vitro were measured by CellTiter-Glo (CTG) assay (Promega, America). In linear/log-phase growth, cultured MV-4-11 cells were split to with seeding density of 2 × 10^5 cells/mL in 1–20 mL of media, depending on the yield required at the end of the growth period. At the conclusion of each treatment period, cells were harvested by centrifugation (4 min, 1000 rpm), and cell pellets were rinsed twice with PBS before being research further processing. Afterwards, cells were plated in 96-well plates with a density of 500 cells/well in […] media. After six hours incubation, compounds treatment was performed. Half of the culture medium was moved and re-plated with fresh media with fresh compound after 6 days. On the 12th day, Cell Titer-Glo Luminescent Cell Viability assays (Promega, USA) were used to determine the viable cell number, and luminescence was recorded using the Envision Multilabel Plate Readers (PerkinElmer). The concentration dependence curves were determined at each time point using GraphPad Prism 8.0 software.

[3] = test system: MDA-MB-468 cells; assay: Anti-proliferation CellTiter-Glo assay, MDA-MB-468; type: cell-based; details: Homo sapiens
From the text: as §1, §2, §3

[4] = test system: AML-12 hepatocytes; assay: Toxicity on normal AML-12 hepatocytes; type: cell-based; details: Mus musculus, AML12
From the text: as §1
as §2, with “ABCAM. […]” for “ABCAM.”

Question: Which results are given for `O=C(NC[C@H](O)CN1CCc2ccccc2C1)c1ccc2[nH]c3c(c2c1)CCCCCC3` [Compound 10, (S)-N-(3-(3,4-dihydroisoquinolin-2(1H)-yl)-2-hydroxypropyl)-6,7,8,9,10,11-hexahydro-5H-cycloocta[b]indole-2-carboxamide]?
Answer: inhibition at 0.1 µM [1]: 71 ± 1.3%; GI50 [2]: 42.4 ± 2.6 nM; GI50 [3]: 126 ± 70.9 nM; inhibition at 10 µM ([4]; read-out: AML-12 Inhibition Rate% @10 μM): 97.9 ± 1.2%; inhibition at 20 µM ([4]; read-out: AML-12 Inhibition Rate% @20 μM): 100.7 ± 0.1%

Question: For `COc1ccc2[nH]c3ccc(C(=O)NC[C@H](O)CN4CCc5ccccc5C4)cc3c2c1` [Compound 4, (S)-N-(3-(3,4-dihydroisoquinolin-2(1H)-yl)-2-hydroxypropyl)-6-methoxy-9H-carbazole-3-carboxamide], which inhibition at 0.1 µM [1] is on record?
Answer: Its inhibition at 0.1 µM is 64 ± 1.5%.

Question: `CC(C)n1c2c(c3cc(C(=O)NC[C@H](O)CN4CCc5ccccc5C4)ccc31)CCCC2` [Compound 16, (S)-N-(3-(3,4-dihydroisoquinolin-2(1H)-yl)-2-hydroxypropyl)-9-isopropyl-2,3,4,9-tetrahydro-1H-carbazole-6-carboxamide] was tested. Which inhibition at 0.1 µM [1] did it give?
Answer: Its inhibition at 0.1 µM is 70 ± 0.2%.

Question: For `CCC1CCc2[nH]c3ccc(C(=O)NC[C@H](O)CN4CCc5ccccc5C4)cc3c2C1` (stereo partly drawn) [Compound 12, N-((S)-3-(3,4-dihydroisoquinolin-2(1H)-yl)-2-hydroxypropyl)-3-ethyl-2,3,4,9-tetrahydro-1H-carbazole-6-carboxamide], which inhibition at 0.1 µM [1] is on record?
Answer: Its inhibition at 0.1 µM is 58 ± 3.7%.

Question: With `CCN1CCc2[nH]c3ccc(C(=O)NC[C@H](O)CN4CCc5ccccc5C4)cc3c2C1` [Compound 22, (S)-N-(3-(3,4-dihydroisoquinolin-2(1H)-yl)-2-hydroxypropyl)-2-ethyl-2,3,4,5-tetrahydro-1H-pyrido[4,3-b]indole-8-carboxamide] as the compound, how does the inhibition at 0.1 µM [1] read?
Answer: The inhibition at 0.1 µM was 64 ± 10.7%.

Question: With `CN1CCc2[nH]c3ccc(C(=O)NC[C@H](O)CN4CCc5ccccc5C4)cc3c2C1` [Compound 21, (S)-N-(3-(3,4-dihydroisoquinolin-2(1H)-yl)-2-hydroxypropyl)-2-methyl-2,3,4,5-tetrahydro-1H-pyrido[4,3-b]indole-8-carboxamide] as the compound, how does the inhibition at 0.1 µM [1] read?
Answer: Its inhibition at 0.1 µM is 48 ± 1.2%.

Question: Which inhibition at 0.1 µM [1] does the source give for `CC(C)N1CCc2[nH]c3ccc(C(=O)NC[C@H](O)CN4CCc5ccccc5C4)cc3c2C1` [Compound 25, (S)-N-(3-(3,4-dihydroisoquinolin-2(1H)-yl)-2-hydroxypropyl)-2-isopropyl-2,3,4,5-tetrahydro-1H-pyrido[4,3-b]indole-8-carboxamide] here?
Answer: Its inhibition at 0.1 µM is 51 ± 4.2%.

Question: How did the inhibition at 0.1 µM [1] turn out when `CC(C)Cn1c2c(c3cc(C(=O)NC[C@H](O)CN4CCc5ccccc5C4)ccc31)CCCC2` [Compound 17, (S)-N-(3-(3,4-dihydroisoquinolin-2(1H)-yl)-2-hydroxypropyl)-9-isobutyl-2,3,4,9-tetrahydro-1H-carbazole-6-carboxamide] was run?
Answer: Its inhibition at 0.1 µM is 75 ± 1.6%.

Question: `O=C(NC[C@H](O)CN1CCc2ccccc2C1)c1ccc2c(c1)c1c(n2CC2CC2)CCCC1` [Compound 18, (S)-9-(cyclopropylmethyl)-N-(3-(3,4-dihydroisoquinolin-2(1H)-yl)-2-hydroxypropyl)-2,3,4,9-tetrahydro-1H-carbazole-6-carboxamide] was tested. Which inhibition at 0.1 µM [1] did it give?
Answer: The inhibition at 0.1 µM was 60 ± 4.6%.

Question: `O=C(NC[C@H](O)CN1CCc2ccccc2C1)c1ccc2[nH]c3c(c2c1)CN(C1CC1)CC3` [Compound 23, (S)-2-cyclopropyl-N-(3-(3,4-dihydroisoquinolin-2(1H)-yl)-2-hydroxypropyl)-2,3,4,5-tetrahydro-1H-pyrido[4,3-b]indole-8-carboxamide] was tested. Which inhibition at 0.1 µM [1] did it give?
Answer: Its inhibition at 0.1 µM is 52 ± 4.8%.

Question: How did the inhibition at 0.1 µM [1] turn out when `Cc1ccc2[nH]c3ccc(C(=O)NC[C@H](O)CN4CCc5ccccc5C4)cc3c2c1` [Compound 2, (S)-N-(3-(3,4-dihydroisoquinolin-2(1H)-yl)-2-hydroxypropyl)-6-methyl-9H-carbazole-3-carboxamide] was run?
Answer: The inhibition at 0.1 µM was 59 ± 0.4%.

Question: How did the inhibition at 0.1 µM [1] turn out when `CCCN1CCc2[nH]c3ccc(C(=O)NC[C@H](O)CN4CCc5ccccc5C4)cc3c2C1` [Compound 24, (S)-N-(3-(3,4-dihydroisoquinolin-2(1H)-yl)-2-hydroxypropyl)-2-propyl-2,3,4,5-tetrahydro-1H-pyrido[4,3-b]indole-8-carboxamide] was run?
Answer: Its inhibition at 0.1 µM is 63 ± 4.4%.

Question: With `O=C(NC[C@H](O)CN1CCc2ccccc2C1)c1ccc2[nH]c3ccc(Cl)cc3c2c1` [Compound 5, (S)-6-chloro-N-(3-(3,4-dihydroisoquinolin-2(1H)-yl)-2-hydroxypropyl)-9H-carbazole-3-carboxamide] as the compound, how does the inhibition at 0.1 µM [1] read?
Answer: Its inhibition at 0.1 µM is 69 ± 7%.

Question: How did the inhibition at 0.1 µM [1] turn out when `CC(C)CN1CCc2[nH]c3ccc(C(=O)NC[C@H](O)CN4CCc5ccccc5C4)cc3c2C1` [Compound 26, (S)-N-(3-(3,4-dihydroisoquinolin-2(1H)-yl)-2-hydroxypropyl)-2-isobutyl-2,3,4,5-tetrahydro-1H-pyrido[4,3-b]indole-8-carboxamide] was run?
Answer: Its inhibition at 0.1 µM is 59 ± 1.4%.

Question: For `Cn1c2ccccc2c2cc(C(=O)NC[C@H](O)CN3CCc4ccccc4C3)ccc21` [Compound 6, (S)-N-(3-(3,4-dihydroisoquinolin-2(1H)-yl)-2-hydroxypropyl)-9-methyl-9H-carbazole-3-carboxamide], which inhibition at 0.1 µM [1] is on record?
Answer: Its inhibition at 0.1 µM is 63 ± 3.2%.

Question: How did the inhibition at 0.1 µM [1] turn out when `CC1CCc2[nH]c3ccc(C(=O)NC[C@H](O)CN4CCc5ccccc5C4)cc3c2C1` (stereo partly drawn) [Compound 11, N-((S)-3-(3,4-dihydroisoquinolin-2(1H)-yl)-2-hydroxypropyl)-3-methyl-2,3,4,9-tetrahydro-1H-carbazole-6-carboxamide] was run?
Answer: The inhibition at 0.1 µM was 67 ± 3.5%.

Question: How did the inhibition at 0.1 µM [1] turn out when `O=C(NC[C@H](O)CN1CCc2ccccc2C1)c1ccc2[nH]c3c(c2c1)CCCCC3` [Compound 9, (S)-N-(3-(3,4-dihydroisoquinolin-2(1H)-yl)-2-hydroxypropyl)-5,6,7,8,9,10-hexahydrocyclohepta[b]indole-2-carboxamide] was run?
Answer: Its inhibition at 0.1 µM is 73 ± 4.1%.

Question: With `O=C(NC[C@H](O)CN1CCc2ccccc2C1)c1ccc2[nH]c3ccc(F)cc3c2c1` [Compound 3, (S)-N-(3-(3,4-dihydroisoquinolin-2(1H)-yl)-2-hydroxypropyl)-6-fluoro-9H-carbazole-3-carboxamide] as the compound, how does the inhibition at 0.1 µM [1] read?
Answer: Its inhibition at 0.1 µM is 65 ± 0.2%.

Question: For `O=C(NC[C@H](O)CN1CCc2ccccc2C1)c1ccc2[nH]c3c(c2c1)CCC3` [Compound 8, (S)-N-(3-(3,4-dihydroisoquinolin-2(1H)-yl)-2-hydroxypropyl)-1,2,3,4-tetrahydrocyclopenta[b]indole-7-carboxamide], which inhibition at 0.1 µM [1] is on record?
Answer: The inhibition at 0.1 µM was 74 ± 2%.
